Each molecule was assayed against IRAK4 (Homo sapiens (Human), UniProt Q9NWZ3) (assay: IRAK4 Kinase Assay (IMAP fluorescence polarization)). Settings: 0.5 nM GST tagged IRAK4, 100 μM ATP, 100 nM fluorescent peptide substrate RP7030, 30 minutes at 25° C.
IRAK4, sequence (Q9NWZ3 whole entry): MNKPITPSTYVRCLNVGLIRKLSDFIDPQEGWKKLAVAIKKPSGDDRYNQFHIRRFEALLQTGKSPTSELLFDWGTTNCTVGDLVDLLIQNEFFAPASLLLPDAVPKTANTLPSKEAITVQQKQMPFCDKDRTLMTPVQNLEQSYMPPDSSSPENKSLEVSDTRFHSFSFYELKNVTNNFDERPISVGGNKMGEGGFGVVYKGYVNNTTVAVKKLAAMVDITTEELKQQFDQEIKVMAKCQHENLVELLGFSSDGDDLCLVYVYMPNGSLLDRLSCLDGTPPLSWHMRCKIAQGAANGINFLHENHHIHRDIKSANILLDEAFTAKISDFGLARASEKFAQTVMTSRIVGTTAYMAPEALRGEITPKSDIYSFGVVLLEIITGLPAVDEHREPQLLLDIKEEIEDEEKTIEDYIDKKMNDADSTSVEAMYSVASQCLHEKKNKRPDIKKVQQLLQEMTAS
Type: biochemical
Description: The kinase activity of IRAK4 is determined by its ability to catalyze the phosphorylation of a fluorescent polypeptide substrate. The extent of phosphorylation is measured using the IMAP technology (Molecular Devices) where the phosphorylated fluorescent substrate binds to the large M(III)-based nanoparticles which reduces the rotational speed of the substrate and thus increases its fluorescent polarization (FP).
20 μL reaction mixture contains 10 mM TriHCl, pH 7.2, 0.5 nM GST tagged IRAK4 (SignalChem), 100 nM fluorescent peptide substrate (RP7030, Molecular Devices), 100 μM ATP, 1 mM DDT, 1 mM MgCl2, and 0.01% Tween 20. The reaction is initiated by the addition of ATP. After incubation for 30 minutes at 25° C., 60 μL of Progressive IMAP Reagent (Molecular Devices) is added to stop the reaction. Change in RP7030's FP is determined by a FP reader (Analyst HT, LJL BioSystems).
Work on `CN(C)[C@H]1CC[C@H](Nc2ncnc3ccc(-c4cnccc4C(F)(F)F)cc23)CC1` [Example 1-36, trans-N,N-dimethyl-N′-{6-[4-(trifluoromethyl)pyridin-3-yl]quinazolin-4-yl}cyclohexane-1,4-diamine] yielded an IC50 of 19 nM.
Work on `CN(C)[C@H]1CC[C@H](Nc2ncnc3ccc(-c4cncc(C(=O)O)c4)cc23)CC1` [Example 1-37, 5-(4-{[trans-4-(dimethylamino)cyclohexyl]amino}quinazolin-6-yl)pyridine-3-carboxylic acid] yielded an IC50 of 504 nM.
With `COc1cnccc1-c1ccc2ncnc(N[C@H]3CC[C@H](N(C)C)CC3)c2c1` [Example 1-38, trans-N′-[6-(3-methoxypyridin-4-yl)quinazolin-4-yl]-N,N-dimethylcyclohexane-1,4-diamine] the IC50 was 71 nM.
For `CN(C)[C@H]1CC[C@H](Nc2ncnc3ccc(-c4cccnc4C#N)cc23)CC1` [Example 1-39, 3-(4-{[trans-4-(dimethylamino)cyclohexyl]amino}quinazolin-6-yl)pyridine-2-carbonitrile], the IC50 was 43 nM.
Molecule `COCCOc1cncc(-c2ccc3ncnc(N[C@H]4CC[C@H](N(C)C)CC4)c3c2)c1` [Example 1-40, trans-N′-{6-[5-(2-methoxyethoxy)pyridin-3-yl]quinazolin-4-yl}-N,N-dimethylcyclohexane-1,4-diamine] has an IC50 of 83 nM.
Molecule `CN(C)[C@H]1CC[C@H](Nc2ncnc3ccc(-c4cncc(S(C)(=O)=O)c4)cc23)CC1` [Example 1-41, trans-N,N-dimethyl-N′-{6-[5-(methylsulfonyl)pyridin-3-yl]quinazolin-4-yl}cyclohexane-1,4-diamine] has an IC50 of 2350 nM.
For `CN(C)[C@H]1CC[C@H](Nc2ncnc3ccc(-c4cnc(NC5CC5)nc4)cc23)CC1` [Example 1-42, trans-N′-{6-[2-(cyclopropylamino)pyrimidin-5-yl]quinazolin-4-yl}-N,N-dimethylcyclohexane-1,4-diamine], the IC50 was 11 nM.
Molecule `CN(C)[C@H]1CC[C@H](Nc2ncnc3ccc(-c4cnc(NCCO)nc4)cc23)CC1` [Example 1-43, 2-{[5-(4-{[trans-4-(dimethylamino)cyclohexyl]amino}quinazolin-6-yl)pyrimidin-2-yl]amino}ethanol] has an IC50 of 25 nM.
For `CN(C)[C@H]1CC[C@H](Nc2ncnc3ccc(-c4cccc(C#N)c4)cc23)CC1` [Example 1-44, 3-(4-{[trans-4-(dimethylamino)cyclohexyl]amino}quinazolin-6-yl)benzonitrile], the IC50 was 32 nM.
For `CN(C)[C@H]1CC[C@H](Nc2ncnc3ccc(-c4ccc5[nH]ccc5c4)cc23)CC1` [Example 1-45, trans-N′-[6-(1H-indol-5-yl)quinazolin-4-yl]-N,N-dimethylcyclohexane-1,4-diamine], the IC50 was 81 nM.
With `c1cncc(-c2ccc3ncnc(N[C@H]4CC[C@H](N5CCOCC5)CC4)c3c2)c1` [Example 1-46, N-[trans-4-(morpholin-4-yl)cyclohexyl]-6-(pyridin-3-yl)quinazolin-4-amine] the IC50 was 19 nM.
With `c1ncc(-c2ccc3ncnc(N[C@H]4CC[C@H](N5CCOCC5)CC4)c3c2)cn1` [Example 1-47, N-[trans-4-(morpholin-4-yl)cyclohexyl]-6-(pyrimidin-5-yl)quinazolin-4-amine] the IC50 was 3 nM.
`c1cc(-c2ccc3ncnc(N[C@H]4CC[C@H](N5CCOCC5)CC4)c3c2)ccn1` [Example 1-48, N-[trans-4-(morpholin-4-yl)cyclohexyl]-6-(pyridin-4-yl)quinazolin-4-amine] gave an IC50 of 9 nM.
In the case of `CN(C)[C@H]1CC[C@H](Nc2ncnc3ccc(-c4ccc5c(c4)OCCO5)cc23)CC1` [Example 1-49, trans-N′-[6-(2,3-dihydro-1,4-benzodioxin-6-yl)quinazolin-4-yl]-N,N-dimethylcyclohexane-1,4-diamine], the IC50 is reported as 161 nM.
`CN(C)[C@H]1CC[C@H](Nc2ncnc3ccc(-c4ccnnc4)cc23)CC1` [Example 1-50, trans-N,N-dimethyl-N′-[6-(pyridazin-4-yl)quinazolin-4-yl]cyclohexane-1,4-diamine] was tested, and the IC50 was 11 nM.
`COc1cncc(-c2ccc3ncnc(N[C@H]4CC[C@H](N(C)C)CC4)c3c2)c1` [Example 1-51, trans-N′-[6-(5-methoxypyridin-3-yl)quinazolin-4-yl]-N,N-dimethylcyclohexane-1,4-diamine] showed an IC50 of 25 nM.
Work on `COc1ncc(-c2ccc3ncnc(N[C@H]4CC[C@H](N(C)C)CC4)c3c2)cc1F` [Example 1-52, trans-N′-[6-(5-fluoro-6-methoxypyridin-3-yl)quinazolin-4-yl]-N,N-dimethylcyclohexane-1,4-diamine] yielded an IC50 of 200 nM.
`CN(C)[C@H]1CC[C@H](Nc2ncnc3ccc(-c4cncc(F)c4)cc23)CC1` [Example 1-53, trans-N′-[6-(5-fluoropyridin-3-yl)quinazolin-4-yl]-N,N-dimethylcyclohexane-1,4-diamine] gave an IC50 of 24 nM.
With `CN(C)[C@H]1CC[C@H](Nc2ncnc3ccc(-c4cncc(C#N)c4)cc23)CC1` [Example 1-54, 5-(4-{[trans-4-(dimethylamino)cyclohexyl]amino}quinazolin-6-yl)pyridine-3-carbonitrile] the IC50 was 46 nM.
`CN(C)[C@H]1CC[C@H](Nc2ncnc3ccc(-c4cnc5[nH]ccc5c4)cc23)CC1` [Example 1-55, trans-N,N-dimethyl-N′-[6-(1H-pyrrolo[2,3-b]pyridin-5-yl)quinazolin-4-yl]cyclohexane-1,4-diamine] gave an IC50 of 46 nM.
In the case of `CN(C)[C@H]1CC[C@H](Nc2ncnc3ccc(-c4cncc(C(=O)NC(C)(C)C)c4)cc23)CC1` [Example 1-56, N-tert-butyl-5-(4-{[trans-4-(dimethylamino)cyclohexyl]amino}quinazolin-6-yl)pyridine-3-carboxamide], the IC50 is reported as 129 nM.
`CN1CCOc2cc(-c3ccc4ncnc(N[C@H]5CC[C@H](N(C)C)CC5)c4c3)cnc21` [Example 1-57, trans-N,N-dimethyl-N′-[6-(4-methyl-3,4-dihydro-2H-pyrido[3,2-b][1,4]oxazin-7-yl)quinazolin-4-yl]cyclohexane-1,4-diamine] gave an IC50 of 6730 nM.
In the case of `CN(C)[C@H]1CC[C@H](Nc2ncnc3ccc(-c4cnc5[nH]ncc5c4)cc23)CC1` [Example 1-58, trans-N,N-dimethyl-N′-[6-(1H-pyrazolo[3,4-b]pyridin-5-yl)quinazolin-4-yl]cyclohexane-1,4-diamine], the IC50 is reported as 21 nM.
Molecule `CN(C)[C@H]1CC[C@H](Nc2ncnc3ccc(-c4cnc5cc[nH]c5c4)cc23)CC1` [Example 1-59, trans-N,N-dimethyl-N′-[6-(1H-pyrrolo[3,2-b]pyridin-6-yl)quinazolin-4-yl]cyclohexane-1,4-diamine] has an IC50 of 124 nM.
For `Cn1cnc2cc(-c3ccc4ncnc(N[C@H]5CC[C@H](N(C)C)CC5)c4c3)cnc21` [Example 1-60, trans-N,N-dimethyl-N′-[6-(3-methyl-3H-imidazo[4,5-b]pyridin-6-yl)quinazolin-4-yl]cyclohexane-1,4-diamine], the IC50 was 1690 nM.
`CN(C)[C@H]1CC[C@H](Nc2ncnc3ccc(-c4cnc5ccoc5c4)cc23)CC1` [Example 1-61, trans-N′-[6-(furo[3,2-b]pyridin-6-yl)quinazolin-4-yl]-N,N-dimethylcyclohexane-1,4-diamine] gave an IC50 of 109 nM.
`CN(C)[C@H]1CC[C@H](Nc2ncnc3ccc(-c4cc(F)cc(F)c4)cc23)CC1` [Example 1-62, trans-N′-[6-(3,5-difluorophenyl)quinazolin-4-yl]-N,N-dimethylcyclohexane-1,4-diamine] was tested, and the IC50 was 23 nM.
In the case of `CN(C)[C@H]1CC[C@H](Nc2ncnc3ccc(-c4cc(O)cc(F)c4)cc23)CC1` [Example 1-63, 3-(4-{[trans-4-(dimethylamino)cyclohexyl]amino}quinazolin-6-yl)-5-fluorophenol], the IC50 is reported as 3 nM.
For `CN(C)[C@H]1CC[C@H](Nc2ncnc3ccc(-c4cc(O)c(F)c(F)c4)cc23)CC1` [Example 1-64, 5-(4-{[trans-4-(dimethylamino)cyclohexyl]amino}quinazolin-6-yl)-2,3-difluorophenol], the IC50 was 4 nM.
`Oc1cncc(-c2ccc3ncnc(N[C@H]4CC[C@H](N5CCOCC5)CC4)c3c2)c1` [Example 1-65, 5-(4-{[trans-4-(morpholin-4-yl)cyclohexyl]amino}quinazolin-6-yl)pyridin-3-ol] showed an IC50 of under 0.5 nM.
Molecule `Oc1cc(F)cc(-c2ccc3ncnc(N[C@H]4CC[C@H](N5CCOCC5)CC4)c3c2)c1` [Example 1-66, 3-fluoro-5-{4-[(trans-4-morpholin-4-ylcyclohexyl)amino]quinazolin-6-yl}phenol] has an IC50 of 5 nM.
`Oc1cc(-c2ccc3ncnc(N[C@H]4CC[C@H](N5CCOCC5)CC4)c3c2)ccn1` [Example 1-67, 4-{4-[(trans-4-morpholin-4-ylcyclohexyl)amino]quinazolin-6-yl}pyridin-2-ol] gave an IC50 of 15 nM.
Molecule `Fc1cc(F)cc(-c2ccc3ncnc(N[C@H]4CC[C@H](N5CCOCC5)CC4)c3c2)c1` [Example 1-68, 6-(3,5-difluorophenyl)-N-(trans-4-morpholin-4-ylcyclohexyl)quinazolin-4-amine] has an IC50 of 25 nM.
Work on `COc1cncc(-c2ccc3ncnc(N[C@H]4CC[C@H](N5CCOCC5)CC4)c3c2)c1` [Example 1-69, 6-(5-methoxypyridin-3-yl)-N-[trans-4-(morpholin-4-yl)cyclohexyl]quinazolin-4-amine] yielded an IC50 of 18 nM.
Molecule `Oc1cc(-c2ccc3ncnc(N[C@H]4CC[C@H](N5CCOCC5)CC4)c3c2)cc(F)c1F` [Example 1-70, 2,3-difluoro-5-{4-[(trans-4-morpholin-4-ylcyclohexyl)amino]quinazolin-6-yl}phenol] has an IC50 of 5 nM.
Work on `COc1ncc(-c2ccc3ncnc(N[C@H]4CC[C@H](N5CCOCC5)CC4)c3c2)cc1N` [Example 1-71, 6-(5-amino-6-methoxypyridin-3-yl)-N-(trans-4-morpholin-4-ylcyclohexyl)quinazolin-4-amine] yielded an IC50 of 17 nM.

Reference: patent publication US9969749B2, “Inhibitors of IRAK4 activity” (MERCK SHARP & DOHME CORP., priority 2014, dated 2018)
